Test results from US20230416836A1, “METHOD FOR PREDICTING RESPONSIVENESS TO PLK1 INHIBITION” (National University of Singapore, priority 2020, published 2023).
“Also recorded” adds a separate entry of the source.

Experiments:
MCF10A ARID1A KO cells = assay: cell survival screen with clinically applicable kinase inhibitors; format: cell-based; conditions: MCF10A system, ARID1A KO vs WT, ratios of Z-scores
Text: FIG. 2: Generation of ARID1A KO cells in (A) GES1, (B) MCF10A, (C) OVCAR3, (D) Ratios of Z-scores, showing hits from preliminary FDA approved kinase inhibitor screen.
ARID1A Knockout (KO) cell lines were generated using CRISPR-Cas9 gene editing in multiple cellular contexts where ARID1A is lost-Gastric (GES1), Breast (MCF10A), and Ovarian (OVCAR3) (FIG. 2 A-C).

[1] = test system: OVCAR3 ARID1A WT and KO cells; assay: Cell proliferation assays in OVCAR3 cells; format: cell-based; conditions: OVCAR3 ARID1A WT vs KO
Text: (§1) This synthetic lethal interaction was validated using Volasertib in multiple isogenic ARID1A WT and KO cell lines, using cell proliferation and colony formation assays (FIG. 3 A-E).

[2] = test system: GES1-ARID1A isogenic cell lines; assay: metabolomics by 1D NMR; format: cell-based; conditions: GES1-ARID1A WT and KO
Text: (B) Heat map of important metabolites up/down regulated in GES1-ARID1A WT and KO with and without volasertib treatment, as measured by 1D NMR.
In addition, ARID1A loss causes a dramatic alteration in transcriptome leading to up or down regulation of many important biological pathways (FIG. 6).

GES1 cells = assay: Western blots of cleaved PARP in GES1 cells; format: cell-based; conditions: GES1 whole cell lysates, indicated time points
Text: (§2) HSC70 was used as loading control.

[3] = test system: MCF10A ARID1A WT and KO cells; assay: Cell titre blue assay in MCF10A ARID1A WT and KO cells; format: cell-based; conditions: MCF10A ARID1A WT vs KO
Text: as §1

[4] = test system: GES1 ARID1A WT and KO cells; assay: Cell titre blue assay in GES1 ARID1A WT and KO cells; format: cell-based; conditions: GES1 ARID1A WT vs KO
Text: as §1

[5] = test system: GES1 ARID1A-WT and KO cells; assay: Annexin-V staining (apoptosis); format: cell-based
Text: as §2

[6] = test system: OVCAR3-ARID1A KO xenografts; assay: mouse xenograft experiments with OVCAR3-ARID1A WT or KO cells; format: in vivo; conditions: Nude (SCID) mice, 15 mg/kg body weight once per week for 4 weeks
Method: Nude (SCID) mice received sub-cutaneous injections of OVCAR3-ARID1A WT or KO cells. Tumors were visible 10 days post injection, after which the animals were treated with Volasertib (15 mg/kg body weight) or vehicle once per week for 4 weeks. Body mass and tumor volumes were recorded twice per week. Mice were sacrificed at the end of 4 weeks of treatment and tumors were isolated and imaged, (B) Body mass measurements of mice measured twice per week, (C) Tumor volume measurements of mice measured twice per week, p<0.05, student's t-test, (D) Images of OVCAR3-ARID1A WT/KO tumors isolated from mice after sacrifice, (E) Dot plot of tumor area from D showing changes in tumor area in OVCAR3-ARID1A KO vs OVCAR3-ARID1A KO+volasertib treatment. Tumor area was calculated from the images in image J using the ruler to set scale and applying free hand tool to measure the tumor area.
as §1

OVCAR3 cells = assay: Western blots of cleaved PARP in OVCAR3 cells; format: cell-based; conditions: OVCAR3 whole cell lysates, indicated time points
Text: as §2

[7] = test system: GES1 ARID1A WT and KO cells; assay: mitochondrial depolarization measured using JC-1; format: cell-based; conditions: post treatment
Text: as §2

[8] = test system: GES1 ARID1A-WT and KO cells; assay: colony formation assay in GES1 ARID1A-WT and KO cells; format: cell-based; conditions: GES1 ARID1A-WT vs KO
Text: as §1

cancer = conditions: Phase II clinical trials; cited from earlier work

COc1cc(C(=O)NC2CCN(C)CC2)c(F)cc1Nc1ncc2c(n1)N(C1CCCC1)CC(F)(F)C(=O)N2C [TAK960]
sensitivity of cells with loss of ARID1A in cell survival screen (MCF10A ARID1A KO cells): preferentially sensitivity

CC[C@@H]1C(=O)N(C)c2cnc(Nc3ccc(C(=O)N[C@H]4CC[C@H](N5CCN(CC6CC6)CC5)CC4)cc3OC)nc2N1C(C)C [Volasertib]
synthetic lethality, cell proliferation assays [1]: synthetic lethality between ARID1A loss and Volasertib
changes in metabolic intermediates / metabolomics [2]: profound changes in the metabolomics; also recorded: exacerbated upon volasertib treatment
cleaved PARP accumulation (GES1 cells): increased accumulation of cleaved PARP
synthetic lethality, cell titre blue assay [3]: synthetic lethality between ARID1A loss and Volasertib
synthetic lethality, cell titre blue assay [4]: synthetic lethality between ARID1A loss and Volasertib
apoptosis and cell killing ([5]; ARID1A KO cells): selective cell killing in ARID1A KO cells
apoptosis, Annexin-V positive cells ([5]; GES1 ARID1A-KO cells, post treatment): further increase post Volasertib treatment
anti-tumor activity on xenografts (tumor volume, tumor area) [6]: Anti-tumor activity
anti-tumor activity on xenografts (tumor volume, tumor area) ([6]; 15 mg/kg): synthetically lethal relationship was also demonstrated
cleaved PARP accumulation (OVCAR3 cells): increased accumulation of cleaved PARP
mitochondrial depolarization (JC-1) [7]: markedly increases mitochondrial depolarization; also recorded: increased depolarization post Volasertib treatment in a time dependent manner
synthetic lethality, colony formation assay [8]: synthetic lethality between ARID1A loss and Volasertib
clinical result as monotherapy (cancer): encouraging results as monotherapy
